Laboratory results as given in patent publication US20020137929A1, “1 - (3-heterocyclylphenyl) isothiourea, -isourea, -guanidine and -amidine herbicidal agents” (Intellectual Property Department, BASF Aktiengesellschaft, priority 1998, published 2002).

How the values were obtained:
[1] = tested on: GLXMAW (Soybean, Williams); assay: Postemergence herbicidal evaluation; type: in vivo, Glycine max, (L.) Merr. cv Williams; conditions: postemergence
Method in brief: (§1)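 Rate range approx. 0.0156–0.500 kg/ha. Foliar application at 40 psi to ~2-week seedlings; surfactant 0.5% TWEEN 20 in 50/50 acetone/water. Evaluation 4–5 wk post-treatment by 0–9 visual injury score, means of replicate tests.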

ZEAMX (Corn, Field) = assay: Postemergence herbicidal evaluation; type: in vivo, Zea mays; conditions: postemergence
Method in brief: as §1

CASOB (Sicklepod) = assay: Preemergence herbicidal evaluation; type: in vivo, Cassia obtusifolia; conditions: rated 4-5 weeks after treatment, rating scale 0-9
Method in brief: (§2)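 Test compound, dissolved in aqueous acetone, was sprayed over planted soil cups at an equivalent of about 0.0156 to 0.500 kg/ha; seeds had been mixed with potting soil. Greenhouse growth followed, with visual 0-9 scoring of injury at four to five weeks.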

CYPSE (Flatsedge) = assay: Preemergence weed control under flooded paddy conditions; type: in vivo, Cyperus serotinus; conditions: rated 3-4 weeks after treatment
Method in brief: (§3)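 Visual injury scored 0-9 against control three to four weeks post-treatment, greenhouse-grown. Application: acetone/water (50/50) solutions dosed directly into flood water (1.5-3 cm over silt loam, planted top 0.5 cm), roughly 0.0313 to 0.500 kg/ha active ingredient.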

ECHCG (Barnyardgrass) = assay: Preemergence herbicidal evaluation; type: in vivo, Echinochloa crus-galli; conditions: rated 4-5 weeks after treatment, rating scale 0-9
Method in brief: as §2

[2] = tested on: IPOHE (Morningglory, Ivyleaf); assay: Preemergence herbicidal evaluation; type: in vivo, Ipomoea hederacea; conditions: rated 4-5 weeks after treatment, rating scale 0-9
Method in brief: as §2

[3] = tested on: IPOHE (Morningglory, Ivyleaf); assay: Postemergence herbicidal evaluation; type: in vivo, Ipomoea hederacea; conditions: postemergence
Method in brief: as §1

SETVI (Foxtail, Green) = assay: Postemergence herbicidal evaluation; type: in vivo, Setaria viridis; conditions: postemergence
Method in brief: as §1

[4] = tested on: ECHORC (Watergrass (Calif.)); assay: Preemergence weed control under flooded paddy conditions; type: in vivo, Echinochloa oryzoides; conditions: rated 3-4 weeks after treatment
Method in brief: as §3

ABUTH (Velvetleaf) [5] = assay: Preemergence herbicidal evaluation; type: in vivo, Abutilon theophrasti; conditions: rated 4-5 weeks after treatment, rating scale 0-9
Method in brief: as §2

AMBEL (Ragweed, Common) = assay: Preemergence herbicidal evaluation; type: in vivo, Ambrosia artemisifolia; conditions: rated 4-5 weeks after treatment, rating scale 0-9
Method in brief: as §2

ABUTH (Velvetleaf) [6] = assay: Postemergence herbicidal evaluation; type: in vivo, Abutilon theophrasti; conditions: postemergence
Method in brief: as §1

COc1cccc(CN2C(=O)CSC2=Nc2cc(-n3c(=O)cc(C(F)(F)F)n(C)c3=O)c(F)cc2Cl)c1 [Compound 137, 3-{4-Chloro-2-fluoro-5-{[3-(m-methoxybenzyl)-4-oxo-2-thiazolidinylidene]amino}phenyl}-1-methyl-6-(trifluoromethyl)-2,4(1H,3H)-pyrimidinedione]
herbicidal rating GLXMAW ([1]; rate 0.0156 kg/ha): 6.0
herbicidal rating GLXMAW ([1]; rate 0.0313 kg/ha): 5.5
herbicidal rating GLXMAW ([1]; rate 0.0625 kg/ha): 5.5
herbicidal rating ZEAMX (ZEAMX (Corn, Field); rate 0.0156 kg/ha): 4.0
herbicidal rating ZEAMX (ZEAMX (Corn, Field); rate 0.0313 kg/ha): 4.0
herbicidal rating ZEAMX (ZEAMX (Corn, Field); rate 0.0625 kg/ha): 4.0
Preemergence herbicidal rating CASOB (CASOB (Sicklepod); rate 0.0625 kg/ha): 0.0
Preemergence herbicidal rating CASOB (CASOB (Sicklepod); rate 0.1250 kg/ha): 0.0
Preemergence herbicidal rating CASOB (CASOB (Sicklepod); rate 0.2500 kg/ha): 0.0
herbicidal effect rating, CYPSE (CYPSE (Flatsedge); 0.0313 kg/ha): 0.0
herbicidal effect rating, CYPSE (CYPSE (Flatsedge); 0.0625 kg/ha): 0.0
herbicidal effect rating, CYPSE (CYPSE (Flatsedge); 0.1250 kg/ha): 0.0
herbicidal effect rating, CYPSE (CYPSE (Flatsedge); 0.2500 kg/ha): 0.0
Preemergence herbicidal rating ECHCG (ECHCG (Barnyardgrass); rate 0.0625 kg/ha): 0.0
Preemergence herbicidal rating ECHCG (ECHCG (Barnyardgrass); rate 0.1250 kg/ha): 0.0
Preemergence herbicidal rating ECHCG (ECHCG (Barnyardgrass); rate 0.2500 kg/ha): 0.0
Preemergence herbicidal rating IPOHE ([2]; rate 0.0625 kg/ha): 0.0
Preemergence herbicidal rating IPOHE ([2]; rate 0.1250 kg/ha): 0.0
Preemergence herbicidal rating IPOHE ([2]; rate 0.2500 kg/ha): 1.0
herbicidal rating IPOHE ([3]; rate 0.0156 kg/ha): 9.0
herbicidal rating IPOHE ([3]; rate 0.0313 kg/ha): 9.0
herbicidal rating IPOHE ([3]; rate 0.0625 kg/ha): 9.0
herbicidal rating SETVI (SETVI (Foxtail, Green); rate 0.0156 kg/ha): 1.0
herbicidal rating SETVI (SETVI (Foxtail, Green); rate 0.0313 kg/ha): 1.0
herbicidal rating SETVI (SETVI (Foxtail, Green); rate 0.0625 kg/ha): 3.0
herbicidal effect rating, ECHORC ([4]; 0.0313 kg/ha): 3.0
herbicidal effect rating, ECHORC ([4]; 0.0625 kg/ha): 3.0
herbicidal effect rating, ECHORC ([4]; 0.1250 kg/ha): 3.0
herbicidal effect rating, ECHORC ([4]; 0.2500 kg/ha): 5.0
Preemergence herbicidal rating ABUTH (ABUTH (Velvetleaf) [5]; rate 0.0625 kg/ha): 0.0
Preemergence herbicidal rating ABUTH (ABUTH (Velvetleaf) [5]; rate 0.1250 kg/ha): 0.0
Preemergence herbicidal rating ABUTH (ABUTH (Velvetleaf) [5]; rate 0.2500 kg/ha): 9.0
Preemergence herbicidal rating AMBEL (AMBEL (Ragweed, Common); rate 0.0625 kg/ha): 0.0
Preemergence herbicidal rating AMBEL (AMBEL (Ragweed, Common); rate 0.1250 kg/ha): 0.0
Preemergence herbicidal rating AMBEL (AMBEL (Ragweed, Common); rate 0.2500 kg/ha): 7.0
herbicidal rating ABUTH (ABUTH (Velvetleaf) [6]; rate 0.0156 kg/ha): 9.0
herbicidal rating ABUTH (ABUTH (Velvetleaf) [6]; rate 0.0313 kg/ha): 9.0
herbicidal rating ABUTH (ABUTH (Velvetleaf) [6]; rate 0.0625 kg/ha): 9.0
